Measured values reported in PubChem BioAssay (NCI).
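Growth conditions: 96-well plates. Treatment: test compound, 48 hours, 5 concentrations. Analysis: linear interpolation between bracketing concentrations; unreached endpoints set to highest concentration. TGI: concentration producing complete growth inhibition.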

Key:
Assay in all cases: NCI-60 cell line screen, 48 h
786-0 renal = system: 786-0 renal
A498 renal = system: A498 renal
A549 NSCLC = system: A549 NSCLC
ACHN renal = system: ACHN renal
BT-549 breast = system: BT-549 breast
CAKI-1 renal = system: CAKI-1 renal
CCRF-CEM leukemia = system: CCRF-CEM leukemia
COLO 205 colon = system: COLO 205 colon
DU-145 prostate = system: DU-145 prostate
EKVX NSCLC = system: EKVX NSCLC
HCC-2998 colon = system: HCC-2998 colon
HCT-116 colon = system: HCT-116 colon
HCT-15 colon = system: HCT-15 colon
HL-60(TB) leukemia = system: HL-60(TB) leukemia
HOP-62 NSCLC = system: HOP-62 NSCLC
HOP-92 NSCLC = system: HOP-92 NSCLC
HS 578T breast = system: HS 578T breast
HT29 colon = system: HT29 colon
IGROV1 ovarian = system: IGROV1 ovarian
K-562 leukemia = system: K-562 leukemia
KM12 colon = system: KM12 colon
LOX IMVI melanoma = system: LOX IMVI melanoma
M14 melanoma = system: M14 melanoma
MALME-3M melanoma = system: MALME-3M melanoma
MCF7 breast = system: MCF7 breast
MDA-MB-231 breast = system: MDA-MB-231 breast
MDA-MB-435 = system: MDA-MB-435
MDA-N = system: MDA-N
MOLT-4 leukemia = system: MOLT-4 leukemia
NCI-H226 lung = system: NCI-H226 lung
NCI-H23 lung = system: NCI-H23 lung
NCI-H460 lung = system: NCI-H460 lung
NCI-H522 lung = system: NCI-H522 lung
NCI/ADR-RES ovarian = system: NCI/ADR-RES ovarian
OVCAR-3 ovarian = system: OVCAR-3 ovarian
OVCAR-4 ovarian = system: OVCAR-4 ovarian
OVCAR-5 ovarian = system: OVCAR-5 ovarian
OVCAR-8 ovarian = system: OVCAR-8 ovarian
PC-3 prostate = system: PC-3 prostate
RPMI-8226 leukemia = system: RPMI-8226 leukemia
RXF 393 renal = system: RXF 393 renal
SF-268 CNS = system: SF-268 CNS
SF-295 CNS = system: SF-295 CNS
SK-MEL-2 melanoma = system: SK-MEL-2 melanoma
SK-MEL-28 melanoma = system: SK-MEL-28 melanoma
SK-MEL-5 melanoma = system: SK-MEL-5 melanoma
SK-OV-3 ovarian = system: SK-OV-3 ovarian
SN12C renal = system: SN12C renal
SNB-19 CNS = system: SNB-19 CNS
SNB-75 CNS = system: SNB-75 CNS
SW-620 colon = system: SW-620 colon
T-47D breast = system: T-47D breast
TK-10 renal = system: TK-10 renal
U251 CNS = system: U251 CNS
UACC-257 melanoma = system: UACC-257 melanoma
UACC-62 melanoma = system: UACC-62 melanoma
UO-31 renal = system: UO-31 renal
SF-539 CNS = system: SF-539 CNS
SR leukemia = system: SR leukemia

O=P1(C(O)/C=C/c2ccccc2)N(Cc2ccccc2)[C@@H]2CCCC[C@H]2N1Cc1ccccc1 (stereo partly drawn)
TGI (786-0 renal): 18.8 µM | TGI (A498 renal): 11.2 µM | TGI (A549 NSCLC): 43 µM | TGI (ACHN renal): 37.1 µM | TGI (BT-549 breast): 34.2 µM | TGI (CAKI-1 renal): 65.5 µM | TGI (CCRF-CEM leukemia): > 100 µM | TGI (COLO 205 colon): 6.26 µM | TGI (DU-145 prostate): 45.3 µM | TGI (EKVX NSCLC): 35.9 µM | TGI (HCC-2998 colon): 14.4 µM | TGI (HCT-116 colon): 14 µM | TGI (HCT-15 colon): 43.8 µM | TGI (HL-60(TB) leukemia): 5.88 µM | TGI (HOP-62 NSCLC): 34.6 µM | TGI (HOP-92 NSCLC): 7.48 µM | TGI (HS 578T breast): 10.6 µM | TGI (HT29 colon): 21.5 µM | TGI (IGROV1 ovarian): 14.4 µM | TGI (K-562 leukemia): 16.4 µM | TGI (KM12 colon): 19.5 µM | TGI (LOX IMVI melanoma): 13.7 µM | TGI (M14 melanoma): 19.8 µM | TGI (MALME-3M melanoma): 8.45 µM | TGI (MCF7 breast): 15.1 µM | TGI (MDA-MB-231 breast): 26.2 µM | TGI (MDA-MB-435): 15.1 µM | TGI (MDA-N): 18.2 µM | TGI (MOLT-4 leukemia): 9.77 µM | TGI (NCI-H226 lung): 17.2 µM | TGI (NCI-H23 lung): 21.5 µM | TGI (NCI-H460 lung): 14.7 µM | TGI (NCI-H522 lung): 12.1 µM | TGI (NCI/ADR-RES ovarian): 51.6 µM | TGI (OVCAR-3 ovarian): 27.8 µM | TGI (OVCAR-4 ovarian): 26.5 µM | TGI (OVCAR-5 ovarian): 31.5 µM | TGI (OVCAR-8 ovarian): 13.2 µM | TGI (PC-3 prostate): 11.3 µM | TGI (RPMI-8226 leukemia): 4.59 µM | TGI (RXF 393 renal): 23.5 µM | TGI (SF-268 CNS): 14.2 µM | TGI (SF-295 CNS): 26.8 µM | TGI (SK-MEL-2 melanoma): 6.17 µM | TGI (SK-MEL-28 melanoma): 28.1 µM | TGI (SK-MEL-5 melanoma): 16.4 µM | TGI (SK-OV-3 ovarian): > 100 µM | TGI (SN12C renal): 11.6 µM | TGI (SNB-19 CNS): 20.6 µM | TGI (SNB-75 CNS): 54.5 µM | TGI (SW-620 colon): 33.3 µM | TGI (T-47D breast): 35.7 µM | TGI (TK-10 renal): 28.5 µM | TGI (U251 CNS): 16.5 µM | TGI (UACC-257 melanoma): 16.2 µM | TGI (UACC-62 melanoma): 21.2 µM | TGI (UO-31 renal): 17.7 µM

CCOc1ccc(N=Nc2ccc3cc(/C(C)=N/NC(=O)/C(C#N)=C\c4ccc(N(CCC#N)CCC#N)cc4)c(=O)oc3c2)cc1
TGI (786-0 renal): > 10 µM | TGI (A498 renal): > 10 µM | TGI (A549 NSCLC): > 10 µM | TGI (ACHN renal): > 10 µM | TGI (BT-549 breast): > 10 µM | TGI (CAKI-1 renal): > 10 µM | TGI (CCRF-CEM leukemia): > 10 µM | TGI (COLO 205 colon): > 10 µM | TGI (DU-145 prostate): > 10 µM | TGI (EKVX NSCLC): > 10 µM | TGI (HCC-2998 colon): > 10 µM | TGI (HCT-116 colon): > 10 µM | TGI (HCT-15 colon): > 10 µM | TGI (HL-60(TB) leukemia): > 10 µM | TGI (HOP-62 NSCLC): > 10 µM | TGI (HOP-92 NSCLC): > 10 µM | TGI (HS 578T breast): > 10 µM | TGI (HT29 colon): > 10 µM | TGI (IGROV1 ovarian): > 10 µM | TGI (K-562 leukemia): > 10 µM | TGI (KM12 colon): > 10 µM | TGI (LOX IMVI melanoma): > 10 µM | TGI (M14 melanoma): > 10 µM | TGI (MALME-3M melanoma): > 10 µM | TGI (MCF7 breast): > 10 µM | TGI (MDA-MB-231 breast): > 10 µM | TGI (MDA-MB-435): > 10 µM | TGI (MDA-N): > 10 µM | TGI (MOLT-4 leukemia): > 10 µM | TGI (NCI-H226 lung): > 10 µM | TGI (NCI-H23 lung): > 10 µM | TGI (NCI-H460 lung): > 10 µM | TGI (NCI-H522 lung): > 10 µM | TGI (NCI/ADR-RES ovarian): > 10 µM | TGI (OVCAR-3 ovarian): > 10 µM | TGI (OVCAR-4 ovarian): > 10 µM | TGI (OVCAR-5 ovarian): > 10 µM | TGI (OVCAR-8 ovarian): > 10 µM | TGI (PC-3 prostate): > 10 µM | TGI (RPMI-8226 leukemia): > 10 µM | TGI (RXF 393 renal): > 10 µM | TGI (SF-268 CNS): > 10 µM | TGI (SF-295 CNS): > 10 µM | TGI (SF-539 CNS): > 10 µM | TGI (SK-MEL-2 melanoma): > 10 µM | TGI (SK-MEL-28 melanoma): > 10 µM | TGI (SK-MEL-5 melanoma): > 10 µM | TGI (SK-OV-3 ovarian): > 10 µM | TGI (SN12C renal): > 10 µM | TGI (SNB-19 CNS): > 10 µM | TGI (SNB-75 CNS): > 10 µM | TGI (SR leukemia): > 10 µM | TGI (SW-620 colon): > 10 µM | TGI (T-47D breast): > 10 µM | TGI (TK-10 renal): > 10 µM | TGI (U251 CNS): > 10 µM | TGI (UACC-257 melanoma): > 10 µM | TGI (UACC-62 melanoma): > 10 µM | TGI (UO-31 renal): > 10 µM

O=C1CC(c2ccccc2Cl)C2(C(=O)NC(=O)NC2=O)C(c2ccccc2Cl)C1 (stereo not drawn)
TGI (786-0 renal): > 100 µM | TGI (A498 renal): > 100 µM | TGI (A549 NSCLC): > 100 µM | TGI (ACHN renal): > 100 µM | TGI (BT-549 breast): > 100 µM | TGI (CCRF-CEM leukemia): > 100 µM | TGI (DU-145 prostate): > 100 µM | TGI (EKVX NSCLC): > 100 µM | TGI (HCC-2998 colon): > 100 µM | TGI (HCT-116 colon): > 100 µM | TGI (HCT-15 colon): > 100 µM | TGI (HL-60(TB) leukemia): > 100 µM | TGI (HOP-62 NSCLC): > 100 µM | TGI (HOP-92 NSCLC): > 100 µM | TGI (HS 578T breast): > 100 µM | TGI (HT29 colon): > 100 µM | TGI (IGROV1 ovarian): 95.9 µM | TGI (K-562 leukemia): > 100 µM | TGI (KM12 colon): > 100 µM | TGI (LOX IMVI melanoma): > 100 µM | TGI (M14 melanoma): > 100 µM | TGI (MALME-3M melanoma): 72.4 µM | TGI (MCF7 breast): > 100 µM | TGI (MDA-MB-231 breast): > 100 µM | TGI (MDA-MB-435): > 100 µM | TGI (MDA-N): > 100 µM | TGI (MOLT-4 leukemia): > 100 µM | TGI (NCI-H226 lung): > 100 µM | TGI (NCI-H23 lung): > 100 µM | TGI (NCI-H460 lung): > 100 µM | TGI (NCI-H522 lung): > 100 µM | TGI (NCI/ADR-RES ovarian): > 100 µM | TGI (OVCAR-3 ovarian): > 100 µM | TGI (OVCAR-4 ovarian): > 100 µM | TGI (OVCAR-5 ovarian): > 100 µM | TGI (OVCAR-8 ovarian): > 100 µM | TGI (PC-3 prostate): > 100 µM | TGI (RPMI-8226 leukemia): > 100 µM | TGI (RXF 393 renal): 85.2 µM | TGI (SF-268 CNS): > 100 µM | TGI (SF-295 CNS): > 100 µM | TGI (SF-539 CNS): > 100 µM | TGI (SK-MEL-2 melanoma): > 100 µM | TGI (SK-MEL-28 melanoma): > 100 µM | TGI (SK-MEL-5 melanoma): > 100 µM | TGI (SK-OV-3 ovarian): > 100 µM | TGI (SN12C renal): > 100 µM | TGI (SNB-19 CNS): > 100 µM | TGI (SNB-75 CNS): > 100 µM | TGI (SR leukemia): > 100 µM | TGI (SW-620 colon): > 100 µM | TGI (T-47D breast): 78.2 µM | TGI (TK-10 renal): > 100 µM | TGI (U251 CNS): > 100 µM | TGI (UACC-257 melanoma): > 100 µM | TGI (UACC-62 melanoma): > 100 µM | TGI (UO-31 renal): > 100 µM
